Test results published in PMC2948605 (Clinical cancer research : an official journal of the …, 2010).

Columns and labels:
treatment-naïve lymphoma = conditions: DOX alone, treatment-naïve lymphoma in dogs; cited from earlier work
[1] = system: dogs with spontaneous cancer
[2] = Serum trough VPA concentration; type: in vivo, dog; conditions: 48 h after start of oral VPA, before fifth dose
[3] = system: WBC and neutrophil counts; assay: Complete blood counts for myelosuppression; type: in vivo, dog
[4] = system: acetylated histone H3 in PBMC; assay: PBMC histone H3 acetylation by immunofluorescence; type: in vivo, dog; conditions: fourteen evaluable PBMC samples, data not shown
human patients = conditions: cited from earlier work
[5] = system: canine and human osteosarcoma cells; conditions: cited from earlier work
[6] = Doxorubicin and doxorubicinol pharmacokinetics in plasma by LC/MS/MS; type: in vivo, dog; conditions: three dogs, highest VPA cohort (240 mg/kg/day), IV DOX

COc1cccc2c1C(=O)c1c(O)c3c(c(O)c1C2=O)C[C@@](O)(C(=O)CO)C[C@@H]3O[C@H]1C[C@H](N)[C@H](O)[C@H](C)O1 [DOX, doxorubicin]
Reported remission rates (treatment-naïve lymphoma): 60-85%
Cardiotoxicity ([1]; VPA pre-treated dogs, not directly evaluated, cumulative DOX dose < 150 mg/m^2): did not observe any obvious cardiotoxicity

CCCC(CCC)C(=O)O [VPA, valproic acid]
Trough serum VPA level reached [2]: up to 0.5 mM
Myelosuppression induced by VPA ([3]; doses up to 240 mg/kg/day, day 3 vs day 1 WBC and neutrophils): does not induce any significant myelosuppression
Potentiation of DOX induced myelosuppression ([3]; nadir WBC and neutrophil count day 7 post DOX vs VPA dose): no potentiation of DOX induced myelosuppression
Correlation of fold change in PBMC histone H3 acetylation with trough VPA levels [4]: did not correlate
MTD in human Phase I studies (human patients): 140 mg/kg/day
Effect of VPA pre-treatment on sensitivity to doxorubicin ([5]; canine and human osteosarcoma cells): results in sensitization to doxorubicin
VPA level capable of chemosensitization in vitro ([5]; previous work): 0.5 mM
Grade 3 metabolic event (ALKP > 5× ULN) ([1]; 180/90 mg/kg cohort, patient with Stage 5 lymphoma): single Grade 3 metabolic event
Grade 2 anorexia ([1]; 210/105 mg/kg cohort): single Grade 2 anorexia
Dose limiting toxicities ([1]; dogs at 240 mg/kg/day): no dose limiting toxicities
Tolerability ([1]; oral VPA, all dose-escalation cohorts): well tolerated in all dose-escalation cohorts
Maximum tolerated dose (MTD) ([1]; oral VPA, cohorts up to 240/120 mg/kg loading/maintenance): No maximum tolerated dose (MTD) was reached
VPA dose that can be administered prior to a standard dose of DOX ([1]; oral divalproex for 48 h before DOX, tumor-bearing dogs): up to 240 mg/kg/day

COc1cccc2c1C(=O)c1c(O)c3c(c(O)c1C2=O)C[C@@](O)([C@@H](O)CO)C[C@@H]3O[C@H]1C[C@H](N)[C@H](O)[C@H](C)O1 [doxorubicinol]
PK of the major metabolite versus historical controls receiving DOX alone [6]: no significant changes
